Like-named read-outs stand apart in the source and are kept apart here.
Experiments:
[1] = molecular target: T1, human TLR2 (Homo sapiens, UniProt O60603+Q15399); assay: cell-based
T1 construct: expressed in transfected cells; host or cells: HEK293-NF-κB-Luc cells (clone LP58), stably transfected

[2] = in vivo; cited from earlier work
[3] = system: B. anthracis (Ames strain); type: in vivo, Bacillus anthracis; settings: 13 days
[4] = system: Streptococcus pneumoniae; settings: in vivo; cited from earlier work
[5] = system: B. anthracis (Ames strain); type: in vivo, Bacillus anthracis; settings: for survival rate: 17 days
[6] = system: human PBMCs
[7] = system: B. anthracis (Ames strain); parameters: species or system Bacillus anthracis; settings: in vivo
[8] = system: B. anthracis; parameters: species or system Bacillus anthracis; settings: in vivo
[9] = system: S. aureus; settings: in vivo; cited from earlier work
[10] = system: PA; settings: cited from earlier work

T1 sequence (O60603 21-784): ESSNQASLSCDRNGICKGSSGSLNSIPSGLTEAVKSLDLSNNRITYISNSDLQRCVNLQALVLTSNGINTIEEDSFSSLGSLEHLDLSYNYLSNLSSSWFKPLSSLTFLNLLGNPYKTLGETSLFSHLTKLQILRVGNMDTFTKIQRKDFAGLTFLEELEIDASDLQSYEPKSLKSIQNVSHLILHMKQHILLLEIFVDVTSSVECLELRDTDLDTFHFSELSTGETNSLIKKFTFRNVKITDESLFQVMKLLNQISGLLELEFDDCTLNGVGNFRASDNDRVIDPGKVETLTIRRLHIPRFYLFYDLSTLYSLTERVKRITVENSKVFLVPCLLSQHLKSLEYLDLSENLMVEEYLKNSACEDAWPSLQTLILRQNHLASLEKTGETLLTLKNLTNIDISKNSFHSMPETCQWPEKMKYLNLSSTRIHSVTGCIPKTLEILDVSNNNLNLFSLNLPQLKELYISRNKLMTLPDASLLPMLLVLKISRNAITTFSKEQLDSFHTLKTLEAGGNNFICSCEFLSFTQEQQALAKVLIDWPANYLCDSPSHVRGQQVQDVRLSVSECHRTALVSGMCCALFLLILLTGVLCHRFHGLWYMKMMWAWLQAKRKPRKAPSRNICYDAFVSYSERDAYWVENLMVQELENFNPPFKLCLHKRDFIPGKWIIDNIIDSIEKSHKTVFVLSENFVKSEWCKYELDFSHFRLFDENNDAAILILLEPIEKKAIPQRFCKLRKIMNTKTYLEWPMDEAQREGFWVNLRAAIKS
T1 sequence (Q15399 25-786): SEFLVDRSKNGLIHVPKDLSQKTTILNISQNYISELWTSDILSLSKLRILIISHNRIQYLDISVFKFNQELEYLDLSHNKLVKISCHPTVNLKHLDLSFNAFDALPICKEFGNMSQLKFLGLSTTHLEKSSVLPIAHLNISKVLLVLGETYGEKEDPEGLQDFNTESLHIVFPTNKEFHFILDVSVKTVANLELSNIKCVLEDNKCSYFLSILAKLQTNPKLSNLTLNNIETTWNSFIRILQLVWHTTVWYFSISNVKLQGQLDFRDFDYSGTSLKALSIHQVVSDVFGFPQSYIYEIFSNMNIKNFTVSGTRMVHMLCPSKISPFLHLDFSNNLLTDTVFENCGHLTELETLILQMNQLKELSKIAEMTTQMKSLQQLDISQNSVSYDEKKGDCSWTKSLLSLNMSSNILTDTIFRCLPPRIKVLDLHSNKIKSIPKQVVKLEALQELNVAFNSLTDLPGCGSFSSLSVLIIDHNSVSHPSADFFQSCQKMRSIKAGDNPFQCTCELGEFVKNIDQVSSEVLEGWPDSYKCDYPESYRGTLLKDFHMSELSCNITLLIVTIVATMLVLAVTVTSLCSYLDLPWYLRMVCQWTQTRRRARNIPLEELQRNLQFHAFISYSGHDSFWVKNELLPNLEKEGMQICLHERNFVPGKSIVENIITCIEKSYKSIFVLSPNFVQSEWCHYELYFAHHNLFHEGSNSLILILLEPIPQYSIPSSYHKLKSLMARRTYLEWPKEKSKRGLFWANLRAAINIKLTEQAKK

## CCCCCCCCCCCCCCCC(=O)N[C@@H](CSC[C@@H](COC(=O)CCCCCCCCCCC)OC(=O)CCCCCCCCCCC)C(=O)N[C@@H](C)C(=O)N[C@H](CCC(=O)O)C(N)=O [DA-98-WW07, (4R,7S,10R,14R)-4-carbamoyl-14-(dodecanoyloxy)-7-methyl-6,9,17-trioxo-10-palmitamido-16-oxa-12-thia-5,8-diazaoctacosanoic acid]
[1]
  EC50: 1.04 ± 1.16 µM
  efficacy (% Eff), NF-κB-Luciferase: 101.36%

## CCc1nc2c(N)nc3ccccc3c2n1CCCCNS(C)(=O)=O [PF4878691]
[2]
  adverse effects in patients: flu-like symptoms, lymphopenia and hypotension

## O=C(O)c1cn(C2CC2)c2cc(N3CCNCC3)c(F)cc2c1=O [ciprofloxacin]
[3]
  survival rate: 50%

## MALP-2
[4]
  pulmonary bacterial burden in mice: reduced pulmonary bacterial burden in mice

## ODN1826
[5]
  survival rate: 0%

## Pam2CSK4
[1]
  induction of NF-kB activity: dose dependent induction of NF-kB activity
[5]
  survival rate: 20%
[6]
  induction of IFN-γ, TNF-α and IL-6 production: able to induce aforementioned cytokine productions with varying potency

## Pam3CSK4
[1]
  induction of NF-kB activity: dose dependent induction of NF-kB activity
[5]
  survival rate: 60%
[5]; in vivo
  protection of mice from lethal challenge of B. anthracis: the best at protecting mice from lethal challenge of B. anthracis
[7]
  survival rate: 40%
[8]
  survival rate after re-challenge: 25%
[6]
  induction of IFN-γ, TNF-α and IL-6 production: able to induce aforementioned cytokine productions with varying potency

## Pam3Cys
[9]
  protection from S. aureus endophthalmitis: protected mice from S. aureus endophthalmitis, preserved retinal structural integrity, and maintained visual function

## Poly (I:C)
[5]
  survival rate: 20%

## lipopolysaccharide [LPS]
[1]
  induction of NF-kB activity: dose dependent induction of NF-kB activity
[6]
  induction of IFN-γ, TNF-α and IL-6 production: able to induce aforementioned cytokine productions with varying potency

B1: obiltoxaximab (antibody, chains of the INN, looked up, V domains shown)
VH: QVQLQQSGPELKKPGASVKVSCKDSGYAFSSSWMNWVRQAPGQGLEWIGRIYPGDGDTNYNGKFQGRVTITADKSSSTAYMELSSLRSEDTAVYFCARSGLLRYAMDYWGQGTLVTVSS
VL: DIQMTQSPSSLSASVGDRVTITCRASQDIRNYLNWYQQKPGKAVKLLIYYTSRLLPGVPSRFSGSGSGTDYSLTISSQEQEDIGTYFCQQGNTLPWTFGQGTKVEIR
[10]
  binding to PA and block of binding to anthrax toxin receptors: bind to PA and block its binding to anthrax toxin receptors
